Data from patent US6472348B1, “Pyridone derivatives and herbicides” (Kumiai Chemical Industry Co., Ltd., priority 1996, dated 2002).

Columns and labels:
Format in all cases: in vivo
China jute (Ab) [1] = test: Test Example 11: crop plant selectivity by upland field foliage treatment (corn), herbicidal effects; parameters: scale not given here
Procedure, shortened: (§1)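 Corn and the weed species were sown together in sand-filled pots and grown in a greenhouse for 2 weeks before foliar treatment. Herbicidal effect was scored on day 14 after treatment against a graded standard scale, with corn phytotoxicity scored alongside.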

slender amaranth (Am) = test: as above; parameters: scale not given here
Procedure, shortened: as §1

pale smartweed (Po) [2] = test: as above; parameters: scale not given here
Procedure, shortened: as §1

[3] = test system: common lambsquarters (Ch); test: as above; parameters: scale not given here
Procedure, shortened: as §1

barnyardgrass (Ec) = test: Test Example 1: herbicidal effects by paddy field soil treatment; details: 100 g of the active ingredient per 10 ares, 21st day after the application, index 0-5 of Table 47;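 also: grade of growth control; 5 = at least 90%; 4 = 70 to 90%; 3 = 50 to 70%; 2 = 30 to 50%; 1 = 10 to 30%; 0 = under 10%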
Procedure, shortened: (§2)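 Flooded paddy-soil pots (3 cm water) sown after puddling/leveling; treatment 100 g a.i./10 ares; greenhouse culture; herbicidal effect rated visually on a scoring scale at 21 d post-application.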

monochoria (Mo) = test: as above; details: 100 g of the active ingredient per 10 ares, 21st day after the application, index 0-5 of Table 47;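 also: grade of growth control; 5 = at least 90%; 4 = 70 to 90%; 3 = 50 to 70%; 2 = 30 to 50%; 1 = 10 to 30%; 0 = under 10%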
Procedure, shortened: as §2

bulrush (Sc) = test: as above; details: 100 g of the active ingredient per 10 ares, 21st day after the application, index 0-5 of Table 47;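 also: grade of growth control; 5 = at least 90%; 4 = 70 to 90%; 3 = 50 to 70%; 2 = 30 to 50%; 1 = 10 to 30%; 0 = under 10%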
Procedure, shortened: as §2

China jute (Ab) [4] = test: Test Example 10: crop plant selectivity by upland field foliage treatment (soybean), herbicidal effects; details: dose 1.6 g ai/10a, 14th day after treatment
Protocol: (§3) (Test on Crop Plant Selectivity by Upland Field Foliage Treatment)
(§4) In a plastic pot (surface area: 600 cm^2) filled with sand, soybean (Gl), pale smartweed (Po), slender amaranth (Am), common lambsquarters (Ch) and China jute (Ab) were sown and cultured in a green house for 2 weeks. […] The plants were then cultured in a green house, and the evaluation of the herbicidal effects and phytotoxicity was conducted on the 14th day after the treatment in accordance with the standards as identified in Table 47.

pale smartweed (Po) [5] = test: as above; details: dose 1.6 g ai/10a, 14th day after treatment
Protocol: as §3, §4

[6] = test system: common lambsquarters (Ch); test: as above; details: dose 1.6 g ai/10a, 14th day after treatment
Protocol: as §3, §4

soybean (Gl) = test: Test Example 6: crop plant selectivity by upland field soil treatment (soybean), phytotoxicity; parameters: scale not given here; details: 21st day after application
Procedure, shortened: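 Pre-emergence soil treatment; sand-filled pots, seeds sown then soil-covered; greenhouse culture; visual rating of weed control and soybean injury on day 21 post-application per standard scale.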

[7] = upland field foliage treatment (corn test), dose 1.6 g ai/10a, 14th day after treatment
[8] = upland field foliage treatment (corn test), dose 0.1 g ai/10a, 14th day after treatment

## Cn1c(C(F)(F)F)ccc(-c2cc(OCCCl)c(Cl)cc2F)c1=O [1-171]
China jute (Ab) [1]; [7]
  Herbicidal effects Ab: 5
Slender amaranth (Am); [7]
  Herbicidal effects Am: 5
Pale smartweed (Po) [2]; [7]
  Herbicidal effects Po: 5
[3]; [7]
  Herbicidal effects Ch: 5
Barnyardgrass (Ec)
  Herbicidal effects Ec: 5
Monochoria (Mo)
  Herbicidal effects Mo: 5
Bulrush (Sc)
  Herbicidal effects Sc: 5
China jute (Ab) [4]
  Herbicidal effects Ab: 5
Pale smartweed (Po) [5]
  Herbicidal effects Po: 5
[6]
  Herbicidal effects Ch: 5
Soybean (Gl); dose 6.3 g ai/10a
  Phytotoxicity Gl: 1

## CCON=Cc1cc(-c2ccc(C(F)(F)F)n(C)c2=O)c(F)cc1Cl [Compound 1-187]
China jute (Ab) [1]; [7]
  Herbicidal effects Ab: 5
Slender amaranth (Am); [7]
  Herbicidal effects Am: 5
Pale smartweed (Po) [2]; [7]
  Herbicidal effects Po: 5
[3]; [7]
  Herbicidal effects Ch: 5
Barnyardgrass (Ec)
  Herbicidal effects Ec: 5
Monochoria (Mo)
  Herbicidal effects Mo: 5
Bulrush (Sc)
  Herbicidal effects Sc: 5
China jute (Ab) [4]
  Herbicidal effects Ab: 5
Pale smartweed (Po) [5]
  Herbicidal effects Po: 5
[6]
  Herbicidal effects Ch: 5
Soybean (Gl); dose 6.3 g ai/10a
  Phytotoxicity Gl: 1

## CSCOc1cc(-c2ccc(C(F)(F)F)n(C)c2=O)c(F)cc1Cl [Compound 1-208]
China jute (Ab) [1]; [7]
  Herbicidal effects Ab: 5
Slender amaranth (Am); [7]
  Herbicidal effects Am: 5
Pale smartweed (Po) [2]; [7]
  Herbicidal effects Po: 5
[3]; [7]
  Herbicidal effects Ch: 5
Barnyardgrass (Ec)
  Herbicidal effects Ec: 5
Monochoria (Mo)
  Herbicidal effects Mo: 5
Bulrush (Sc)
  Herbicidal effects Sc: 5
China jute (Ab) [4]
  Herbicidal effects Ab: 5
Pale smartweed (Po) [5]
  Herbicidal effects Po: 5
[6]
  Herbicidal effects Ch: 5
Soybean (Gl); dose 6.3 g ai/10a
  Phytotoxicity Gl: 2

## CCCc1cc2c(-c3ccc(C(F)(F)F)n(C)c3=O)c(F)cc(Cl)c2o1 [Compound 4-3]
China jute (Ab) [1]; [7]
  Herbicidal effects Ab: 5
Slender amaranth (Am); [7]
  Herbicidal effects Am: 5
Pale smartweed (Po) [2]; [7]
  Herbicidal effects Po: 5
[3]; [7]
  Herbicidal effects Ch: 5
Barnyardgrass (Ec)
  Herbicidal effects Ec: 5
Monochoria (Mo)
  Herbicidal effects Mo: 5
Bulrush (Sc)
  Herbicidal effects Sc: 5
China jute (Ab) [4]
  Herbicidal effects Ab: 5
Pale smartweed (Po) [5]
  Herbicidal effects Po: 5
[6]
  Herbicidal effects Ch: 5
Soybean (Gl); dose 6.3 g ai/10a
  Phytotoxicity Gl: 1

## CCc1cc2c(Cl)cc(F)c(-c3ccc(C(F)(F)F)n(C)c3=O)c2o1 [Compound 5-2]
China jute (Ab) [1]; China jute, foliage treatment, dose 1.6 g ai/10a, evaluated on 14th day after treatment, index per Table 47
  Herbicidal effects Ab: 5
Slender amaranth (Am); slender amaranth, foliage treatment, dose 1.6 g ai/10a, evaluated on 14th day after treatment, index per Table 47
  Herbicidal effects Am: 5
Pale smartweed (Po) [2]; pale smartweed, foliage treatment, dose 1.6 g ai/10a, evaluated on 14th day after treatment, index per Table 47
  Herbicidal effects Po: 5
[3]; common lambsquarters, foliage treatment, dose 1.6 g ai/10a, evaluated on 14th day after treatment, index per Table 47
  Herbicidal effects Ch: 5
Barnyardgrass (Ec)
  Herbicidal effects Ec: 5
Monochoria (Mo)
  Herbicidal effects Mo: 5
Bulrush (Sc)
  Herbicidal effects Sc: 5
China jute (Ab) [4]
  Herbicidal effects Ab: 5
Pale smartweed (Po) [5]
  Herbicidal effects Po: 5
[6]
  Herbicidal effects Ch: 5
Soybean (Gl); dose 6.3 g ai/10a
  Phytotoxicity Gl: 1

## Cn1c(C(F)(F)F)ccc(-c2cc(C#N)c(Cl)cc2F)c1=O [Compound No. 1-119, 3-(4-chloro-5-cyano-2-fluorophenyl)-1-methyl-6-trifluoromethyl-2(1H)-pyridone]
China jute (Ab) [1]; [7]
  Herbicidal effects Ab: 4
Slender amaranth (Am); [7]
  Herbicidal effects Am: 5
Pale smartweed (Po) [2]; [7]
  Herbicidal effects Po: 5
[3]; [7]
  Herbicidal effects Ch: 5
Barnyardgrass (Ec)
  Herbicidal effects Ec: 5
Monochoria (Mo)
  Herbicidal effects Mo: 5
Bulrush (Sc)
  Herbicidal effects Sc: 5
China jute (Ab) [4]
  Herbicidal effects Ab: 4
Pale smartweed (Po) [5]
  Herbicidal effects Po: 5
[6]
  Herbicidal effects Ch: 5
Soybean (Gl); dose 6.3 g ai/10a
  Phytotoxicity Gl: 2

## C#CCN1C(=O)COc2cc(F)c(-c3ccc(C(F)(F)F)n(C)c3=O)cc21 [Compound No. 2-1, 3-[7-fluoro-2,3-dihydro-4-(2-propynyl)-1,4-benzoxazin-3-on-6-yl]-1-methyl-6-trifluoromethyl-2(1H)-pyridone]
China jute (Ab) [1]; [8]
  Herbicidal effects Ab: 5
Slender amaranth (Am); [8]
  Herbicidal effects Am: 5
Pale smartweed (Po) [2]; [8]
  Herbicidal effects Po: 5
[3]; [8]
  Herbicidal effects Ch: 5
Barnyardgrass (Ec)
  Herbicidal effects Ec: 5
Monochoria (Mo)
  Herbicidal effects Mo: 5
Bulrush (Sc)
  Herbicidal effects Sc: 5
Soybean (Gl); dose 1.6 g ai/10a
  Phytotoxicity Gl: 0
Soybean (Gl); dose 6.3 g ai/10a
  Phytotoxicity Gl: 1

## COCc1cc2c(-c3ccc(C(F)(F)F)n(C)c3=O)c(F)cc(Cl)c2o1 [Compound No. 4-4, 3-(7-chloro-5-fluoro-2-methoxymethylbenzofuran-4-yl)-1-methyl-6-trifluoromethyl-2-(1H)-pyridone]
China jute (Ab) [1]; [7]
  Herbicidal effects Ab: 5
Slender amaranth (Am); [7]
  Herbicidal effects Am: 5
Pale smartweed (Po) [2]; [7]
  Herbicidal effects Po: 5
[3]; [7]
  Herbicidal effects Ch: 5
Barnyardgrass (Ec)
  Herbicidal effects Ec: 5
Monochoria (Mo)
  Herbicidal effects Mo: 5
Bulrush (Sc)
  Herbicidal effects Sc: 5
Soybean (Gl); dose 6.3 g ai/10a
  Phytotoxicity Gl: 2

## Cn1c(C(F)(F)F)ccc(-c2c(F)cc(Cl)c3oc(CO)cc23)c1=O [Compound No. 4-5, 3-(7-chloro-5-fluoro-2-hydroxymethylbenzofuran-4-yl)-1-methyl-6-trifluoromethyl-2-(1H)-pyridone]
China jute (Ab) [1]; [7]
  Herbicidal effects Ab: 5
Slender amaranth (Am); [7]
  Herbicidal effects Am: 5
Pale smartweed (Po) [2]; [7]
  Herbicidal effects Po: 5
[3]; [7]
  Herbicidal effects Ch: 5
Barnyardgrass (Ec)
  Herbicidal effects Ec: 5
Monochoria (Mo)
  Herbicidal effects Mo: 5
Bulrush (Sc)
  Herbicidal effects Sc: 5
Soybean (Gl); dose 6.3 g ai/10a
  Phytotoxicity Gl: 2

## Cn1c(C(F)(F)F)ccc(-c2c(F)cc(Cl)c3occc23)c1=O [Compound No. 4-28, 3-(7-chloro-5-fluorobenzofuran-4-yl)-1-methyl-6-trifluoromethyl-2-(1H)-pyridone]
China jute (Ab) [1]; [7]
  Herbicidal effects Ab: 5
Slender amaranth (Am); [7]
  Herbicidal effects Am: 5
Pale smartweed (Po) [2]; [7]
  Herbicidal effects Po: 5
[3]; [7]
  Herbicidal effects Ch: 5
Barnyardgrass (Ec)
  Herbicidal effects Ec: 5
Monochoria (Mo)
  Herbicidal effects Mo: 5
Bulrush (Sc)
  Herbicidal effects Sc: 5
Soybean (Gl); dose 1.6 g ai/10a
  Phytotoxicity Gl: 2
